This is an account of results in patent US7919295B2, “Polyol oxidases” (Danisco US Inc., priority 2006, dated 2011).

For this experiment, the system named is Sorbitol oxidase. Description: Substrate range study of sorbitol oxidase (relative POx activities for substrates). The format is biochemical, Streptomyces sp. H-7775.
[1] abbreviates: substrates 50 mM in 10 mM phosphate buffer pH 7.0, relative to sorbitol.

Experimental: All substrates used in the assay were 50 mM in 10 mM phosphate buffer pH 7.0.

`OC[C@@H](O)[C@@H](O)[C@H](O)[C@@H](O)CO` [D-Sorbitol]: the “Relative Activity (+, 0)” value under setting [1] is reported as “++++++ (++++++=100%)”. As to `OCCO` [Ethylene glycol], the “Relative Activity (+, 0)” value (pH 7) was 0. `CC(O)CO` (stereo not drawn) [Propylene glycol]: the “Relative Activity (+, 0)” value under setting [1] was 0.
